Results taken from ChEMBL document CHEMBL1130934, “Enantioselective synthesis and pharmacology of 11-hydroxy-(1'S,2'R)-dimethylheptyl-delta 8-THC” (Bioorg Med Chem Lett, 1998).

Key:
Mus musculus [1] = species: Mus musculus; assay: Compound was evaluated in mouse model for cannabimimetic activity, expressed as effective dose for spontaneous activity(SA); assay type: functional
Mus musculus [2] = species: Mus musculus; assay: Compound was evaluated in mouse model for cannabimimetic activity, expressed as as effective dose for antinociception (TF); assay type: functional
Mus musculus [3] = species: Mus musculus; assay: Compound was evaluated in mouse model for cannabimimetic activity, expressed as as effective dose for hypothermia (rectal temperature, RT); assay type: functional
Cannabinoid receptor 1 [4] = target: T1, Cannabinoid receptor 1 (Rattus norvegicus, UniProt P20272); assay: Binding affinity for the Cannabinoid receptor using [3H]CP-55940 as radioligand
Cannabinoid receptor 1 [5] = target: T1, Cannabinoid receptor 1; assay: Binding affinity for the cannabinoid brain receptor (CB1) using [3H]CP-55940

T1 sequence (P20272 whole entry): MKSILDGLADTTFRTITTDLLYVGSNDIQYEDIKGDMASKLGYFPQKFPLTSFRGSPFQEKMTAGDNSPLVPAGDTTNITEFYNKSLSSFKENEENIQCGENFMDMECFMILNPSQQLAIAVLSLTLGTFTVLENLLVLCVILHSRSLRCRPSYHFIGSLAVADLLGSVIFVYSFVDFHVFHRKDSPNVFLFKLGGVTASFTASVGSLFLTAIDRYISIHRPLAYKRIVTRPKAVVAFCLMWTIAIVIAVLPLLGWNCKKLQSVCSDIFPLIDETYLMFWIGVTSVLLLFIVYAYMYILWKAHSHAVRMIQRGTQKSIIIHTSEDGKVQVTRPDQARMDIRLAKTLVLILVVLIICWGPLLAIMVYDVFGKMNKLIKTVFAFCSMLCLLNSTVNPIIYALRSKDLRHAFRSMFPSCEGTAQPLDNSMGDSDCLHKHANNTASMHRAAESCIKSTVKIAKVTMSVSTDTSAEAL

SMILES	ED50 (Mus musculus [1]) [µmol/kg]	ED50 (Mus musculus [2]) [µmol/kg]	ED50 (Mus musculus [3]) [µmol/kg]	Ki (Cannabinoid receptor 1 [4]) [nM]	Ki (Cannabinoid receptor 1 [5]) [nM]
CCCCCCC(C)(C)c1cc(O)c2c(c1)OC(C)(C)[C@@H]1CC=C(CO)C[C@@H]21	0.01	0.02	0.05	0.73	–
CCCCCCC(C)(C)c1cc(O)c2c(c1)OC(C)(C)[C@@H]1CC=C(C)C[C@@H]21	0.27	0.14	0.15	–	0.77
CCCCC[C@@H](C)[C@H](C)c1cc(O)c2c(c1)OC(C)(C)[C@@H]1CC=C(C)C[C@@H]21	0.03	0.03	0.07	–	0.46
CCCCC[C@@H](C)[C@H](C)c1cc(O)c2c(c1)OC(C)(C)[C@@H]1CC=C(CO)C[C@@H]21	0.01	0.03	0.02	–	0.49
